Test results taken from article PMC12340637, “Transport of Small Aliphatic Amines by Polyspecific Solute Carriers: Deciphering Structure–Function Relationships” (ACS Pharmacology & Translational Science, 2025).
Marks after values point to notes of the source that are not given here.

Assays:
[1] = target: T1, MATE1 (SLC47A1) (Homo sapiens, UniProt Q96FL8); assay: Cellular uptake into MATE1-overexpressing HEK293 cells vs EV control cells (HPLC-MS/MS); conditions: 2.5 μM substrate, 1 min, 30 mM NH4Cl preincubation, HEK293
T1 sequence (Q96FL8 1-570): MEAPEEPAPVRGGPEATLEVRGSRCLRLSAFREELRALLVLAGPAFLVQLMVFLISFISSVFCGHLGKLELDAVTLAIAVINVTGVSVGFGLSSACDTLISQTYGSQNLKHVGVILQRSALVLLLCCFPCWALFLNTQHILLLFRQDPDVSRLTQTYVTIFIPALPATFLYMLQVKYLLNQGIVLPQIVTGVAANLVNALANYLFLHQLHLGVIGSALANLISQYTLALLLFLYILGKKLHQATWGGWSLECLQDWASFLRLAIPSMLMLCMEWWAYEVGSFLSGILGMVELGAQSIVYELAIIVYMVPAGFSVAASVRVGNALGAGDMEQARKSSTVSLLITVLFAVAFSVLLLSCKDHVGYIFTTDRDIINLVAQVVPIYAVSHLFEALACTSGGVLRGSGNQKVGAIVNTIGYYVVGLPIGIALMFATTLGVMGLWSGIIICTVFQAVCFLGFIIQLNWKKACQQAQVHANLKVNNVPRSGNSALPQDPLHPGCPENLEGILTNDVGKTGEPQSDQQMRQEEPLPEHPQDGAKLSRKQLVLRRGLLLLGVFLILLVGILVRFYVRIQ

[2] = target: T2, OCT2 (SLC22A2) (Homo sapiens, UniProt O15244); assay: Cellular uptake into OCT2-overexpressing HEK293 cells vs EV control cells (HPLC-MS/MS); conditions: for uptake ratio OCT2 (transporter-overexpressing cells over EV control cells): mean (±SD, N): 2.5 μM substrate (§), 2 min, HEK293; for K m (±SEM) / v max (±SEM): OCT2, net uptake, Michaelis–Menten
T2 sequence (O15244 1-555): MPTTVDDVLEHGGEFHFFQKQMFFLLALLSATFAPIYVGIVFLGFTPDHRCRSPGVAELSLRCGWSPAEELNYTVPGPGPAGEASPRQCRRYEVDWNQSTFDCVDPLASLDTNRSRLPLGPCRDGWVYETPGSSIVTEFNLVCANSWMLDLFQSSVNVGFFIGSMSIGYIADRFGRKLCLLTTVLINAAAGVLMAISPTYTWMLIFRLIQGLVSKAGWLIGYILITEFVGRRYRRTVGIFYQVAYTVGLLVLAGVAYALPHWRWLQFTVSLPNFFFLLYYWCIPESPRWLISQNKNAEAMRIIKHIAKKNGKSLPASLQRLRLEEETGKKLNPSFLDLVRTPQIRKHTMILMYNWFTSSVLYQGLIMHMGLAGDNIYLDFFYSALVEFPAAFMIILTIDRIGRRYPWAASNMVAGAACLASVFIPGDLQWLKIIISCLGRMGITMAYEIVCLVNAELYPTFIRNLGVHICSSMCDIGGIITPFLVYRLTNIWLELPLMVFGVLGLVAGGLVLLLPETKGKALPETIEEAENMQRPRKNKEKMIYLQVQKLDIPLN

[3] = target: T3, OCT3 (SLC22A3) (Homo sapiens, UniProt O75751); assay: Cellular uptake into OCT3-overexpressing HEK293 cells vs EV control cells (HPLC-MS/MS); conditions: for uptake ratio OCT3 (transporter-overexpressing cells over EV control cells): mean (±SD, N): 2.5 μM substrate (§), 2 min, HEK293; for stereoselectivity OCT3 (uptake ratio of the more strongly transported enantiomer divided by that of the other): label = favoured enantiomer
T3 sequence (O75751 1-556): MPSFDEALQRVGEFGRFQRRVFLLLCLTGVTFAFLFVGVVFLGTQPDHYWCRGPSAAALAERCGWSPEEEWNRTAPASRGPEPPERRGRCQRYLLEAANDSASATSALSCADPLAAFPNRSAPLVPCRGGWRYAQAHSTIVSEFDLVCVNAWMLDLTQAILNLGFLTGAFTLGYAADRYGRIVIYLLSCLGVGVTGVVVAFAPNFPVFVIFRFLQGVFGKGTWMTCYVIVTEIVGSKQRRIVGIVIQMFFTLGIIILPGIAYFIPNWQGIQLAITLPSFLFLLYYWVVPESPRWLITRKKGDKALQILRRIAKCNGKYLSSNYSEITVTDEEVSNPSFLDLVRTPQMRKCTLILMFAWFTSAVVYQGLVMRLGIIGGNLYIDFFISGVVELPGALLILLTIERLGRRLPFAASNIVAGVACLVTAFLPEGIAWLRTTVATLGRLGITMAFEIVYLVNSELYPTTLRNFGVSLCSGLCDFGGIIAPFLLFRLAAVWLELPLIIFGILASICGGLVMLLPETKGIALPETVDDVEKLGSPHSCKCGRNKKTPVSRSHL

[4] = target: T4, OCT1 (SLC22A1) (Homo sapiens, UniProt O15245); assay: Cellular uptake into OCT1-overexpressing HEK293 cells vs EV control cells (HPLC-MS/MS); conditions: 2.5 μM substrate (§), 2 min, HEK293
T4 sequence (O15245 1-554): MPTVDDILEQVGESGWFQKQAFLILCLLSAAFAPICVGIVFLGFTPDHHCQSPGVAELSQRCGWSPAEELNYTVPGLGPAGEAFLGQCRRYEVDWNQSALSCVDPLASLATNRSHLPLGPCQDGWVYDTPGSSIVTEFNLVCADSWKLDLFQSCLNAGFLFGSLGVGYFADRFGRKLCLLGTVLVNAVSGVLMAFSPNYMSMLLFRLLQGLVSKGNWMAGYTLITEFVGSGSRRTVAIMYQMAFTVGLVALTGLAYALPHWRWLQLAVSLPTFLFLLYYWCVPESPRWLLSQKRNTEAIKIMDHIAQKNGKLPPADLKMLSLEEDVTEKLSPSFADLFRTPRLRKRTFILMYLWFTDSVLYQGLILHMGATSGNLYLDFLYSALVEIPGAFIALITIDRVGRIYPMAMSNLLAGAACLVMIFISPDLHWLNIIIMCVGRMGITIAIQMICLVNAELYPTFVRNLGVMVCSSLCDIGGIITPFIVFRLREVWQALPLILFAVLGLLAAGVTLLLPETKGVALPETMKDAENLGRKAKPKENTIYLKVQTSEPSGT

[5] = target: T2, OCT2 (SLC22A2); assay: in vitro; conditions: pH 7.4
[6] = target: MATE2-K (SLC47A2) (Homo sapiens, UniProt Q86VL8); assay: Cellular uptake into MATE2-K-overexpressing HEK293 cells vs EV control cells (HPLC-MS/MS); conditions: 2.5 μM substrate, 1 min, 30 mM NH4Cl preincubation, HEK293
[7] = target: T4, OCT1 (SLC22A1); assay: in vitro; conditions: pH 7.4
[8] = target: T1, MATE1 (SLC47A1); assay: in vitro; conditions: pH 7.4
[9] = listed as (S)-(+)-2-amino-1-Pentanol

Sequence of MATE2-K (SLC47A2) (Q86VL8 1-566 isoform Q86VL8-3): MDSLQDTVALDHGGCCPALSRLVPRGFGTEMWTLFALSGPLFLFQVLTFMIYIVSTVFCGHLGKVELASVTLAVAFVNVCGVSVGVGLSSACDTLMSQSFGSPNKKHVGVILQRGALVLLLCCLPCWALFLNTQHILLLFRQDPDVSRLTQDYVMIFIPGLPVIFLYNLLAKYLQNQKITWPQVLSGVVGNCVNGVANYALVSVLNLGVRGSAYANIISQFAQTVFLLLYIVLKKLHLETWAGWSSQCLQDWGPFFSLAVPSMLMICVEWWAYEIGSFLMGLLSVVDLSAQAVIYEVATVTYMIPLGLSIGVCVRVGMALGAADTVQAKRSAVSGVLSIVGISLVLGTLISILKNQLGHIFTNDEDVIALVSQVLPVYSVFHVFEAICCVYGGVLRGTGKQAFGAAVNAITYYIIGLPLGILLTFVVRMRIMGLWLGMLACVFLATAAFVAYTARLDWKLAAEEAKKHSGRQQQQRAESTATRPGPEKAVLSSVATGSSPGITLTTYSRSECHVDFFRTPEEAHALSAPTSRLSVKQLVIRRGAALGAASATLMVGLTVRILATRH

Row | uptake ratio MATE1 (transporter-overexpressing cells over EV control cells): mean (±SD, N) [1] | uptake ratio OCT2 (transporter-overexpressing cells over EV control cells): mean (±SD, N) [2] | K m (±SEM) [2] | v max (±SEM) [2] | uptake ratio OCT3 (transporter-overexpressing cells over EV control cells): mean (±SD, N) [3] | stereoselectivity OCT3 (uptake ratio of the more strongly transported enantiomer divided by that of the other) [3] | uptake ratio OCT1 (transporter-overexpressing cells over EV control cells): mean (±SD, N) [4] | uptake ratio MATE2K (transporter-overexpressing cells over EV control cells): mean (±SD, N) [6] | Compound | selectivity ratio at 2 min [5] | selectivity ratio at 2 min [7] | also measured
1 | 1.1 (0.1, 4) | 6.0 (1.7, 4) ^b | 245 (±83) μM | 2342 (±290) ^a pmol/mg protein/min | 1.1 (0.2, 4) | 1.1-fold for (S) | 1.0 (0.3, 4) | 1.5 (0.4, 4) | CCC[C@H](N)CO [(S)-(+)-2-amino-1-pentanol] | 1.2 | – | uptake ratio MATE1 (transporter-overexpressing cells over EV control cells): mean (±SD, N) [1, 9]: 1.1; uptake ratio OCT2 (transporter-overexpressing cells over EV control cells): mean (±SD, N) [2, 9]: 6.0; K m (±SEM) ([2]; listed as (S)-2-amino-1-pentanol): 245 µM; higher v max of one enantiomer over the other, OCT2 ([2]; label = enantiomer with higher v max): 1.6 fold; uptake ratio OCT3 (transporter-overexpressing cells over EV control cells): mean (±SD, N) [3, 9]: 1.1; uptake ratio OCT1 (transporter-overexpressing cells over EV control cells): mean (±SD, N) [4, 9]: 1.0; uptake ratio MATE2K (transporter-overexpressing cells over EV control cells): mean (±SD, N) [6, 9]: 1.5
2 | – | – | 329 (±190) μM | 2488 (±573) pmol/mg protein/min | – | – | – | – | CC(C)[C@@H](N)CO [D-valinol] | – | 1.3 | selectivity ratio at 1 min [8]: 1.4
3 | 0.7 (0.2, 3) | 10.8 (1.4, 3) ^b | – | – | 2.1 (0.5, 3) | 1.9-fold for(S) ^a | 1.4 (0.4, 3) | 0.9 (0.3, 3) | CC(C)(C)[C@H](N)CO [L-tert-Leucinol] | 1.4 | 1.3 | uptake ratio MATE1 (transporter-overexpressing cells over EV control cells): mean (±SD, N) ([1]; listed as L-tert-leucinol): 0.7; uptake ratio OCT2 (transporter-overexpressing cells over EV control cells): mean (±SD, N) ([2]; listed as L-tert-leucinol): 10.8; uptake ratio OCT3 (transporter-overexpressing cells over EV control cells): mean (±SD, N) ([3]; listed as L-tert-leucinol): 2.1; uptake ratio OCT1 (transporter-overexpressing cells over EV control cells): mean (±SD, N) ([4]; listed as L-tert-leucinol): 1.4; uptake ratio MATE2K (transporter-overexpressing cells over EV control cells): mean (±SD, N) ([6]; listed as L-tert-leucinol): 0.9
